pIC50: −log10 of the molar value. Like-named read-outs stand apart in the source and are kept apart here.
What was measured:
[1] = test system: hRPTECs; experiment: Active absorption (Papp) through hRPTECs on the static Transwell; assay type: in vitro ADME, human; conditions: day 4
Method: (§1) After two hours of dynamic absorption, the sample concentrations of FITC-albumin (Ex = 495 nm, Em = 535 nm), ASP+ (Ex = 474 nm, Em = 606 nm) and 5−CF (Ex = 490 nm, Em = 515 nm) were detected by using a microplate reader (BMG Labtech, Germany).
(§2) The Papp was calculated using the equation below:Papp [cm/s] = (1/AC0)(dQ/dt) where A = area of mass transfer, C0 = donor concentration of reagent in the upper medium, and dQ/dt = transmembrane transportation rate.

[2] = test system: HK2 cells; experiment: Active absorption (Papp) through HK2 model on the iBAC; assay type: in vitro ADME, human; conditions: day 4
Method: (§3) After the microdevice was assembled, it was exposed to ultraviolet light for 30 min. The porous membrane was coated with collagen type I hydrogel at 37 °C for 2 h. The hRPTECs or HK2 cells (2 × 10^5 cells/ cm^2) were seeded on the lower microfluidic channel and incubated upside down at 37 °C for 2 h, allowing the seeded hRPTECs or HK2 cells to attach to the porous membrane surface. Then, 100 μL of the culture medium was added to each chamber and the device was placed on the iBAC Rocker (MR100110, Daxiang biotech, Beijing, China) for dynamic culture.
as §1, §2

[3] = test system: hRPTECs; experiment: Active absorption (Papp) through hRPTECs on the iBAC; assay type: in vitro ADME, human; conditions: for Papp value: hRPTECs on the iBAC, day 4, two hours of dynamic absorption, FITC-albumin (Megalin/Cubilin), ASP+ (OCT2), 5-CF (OAT1)
Method: as §3, §1, §2

[4] = target: T1, BCRP (Homo sapiens, UniProt Q9UNQ0); experiment: BCRP efflux function (DiOC2 with or without Ko143), HK2 model on the iBAC; assay type: in vitro ADME; conditions: without inhibitor
T1 sequence (Q9UNQ0 1-655): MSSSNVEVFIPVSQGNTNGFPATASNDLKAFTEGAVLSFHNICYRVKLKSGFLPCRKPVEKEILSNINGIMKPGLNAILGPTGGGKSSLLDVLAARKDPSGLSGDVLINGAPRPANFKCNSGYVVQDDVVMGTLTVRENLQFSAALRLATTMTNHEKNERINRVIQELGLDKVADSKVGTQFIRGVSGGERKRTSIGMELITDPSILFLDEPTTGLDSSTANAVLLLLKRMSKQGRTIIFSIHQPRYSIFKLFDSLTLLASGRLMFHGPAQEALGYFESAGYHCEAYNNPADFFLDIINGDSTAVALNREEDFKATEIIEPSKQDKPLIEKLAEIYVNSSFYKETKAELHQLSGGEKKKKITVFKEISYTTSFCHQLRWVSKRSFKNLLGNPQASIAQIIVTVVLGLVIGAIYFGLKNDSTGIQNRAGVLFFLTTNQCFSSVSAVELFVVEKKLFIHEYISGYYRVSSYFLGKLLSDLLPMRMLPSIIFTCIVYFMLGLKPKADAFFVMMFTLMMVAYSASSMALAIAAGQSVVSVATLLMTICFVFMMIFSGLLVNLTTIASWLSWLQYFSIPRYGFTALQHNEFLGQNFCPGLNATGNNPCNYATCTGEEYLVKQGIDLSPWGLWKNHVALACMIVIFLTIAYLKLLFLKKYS
Method: as §2

[5] = target: T1, BCRP; experiment: BCRP efflux function (DiOC2 with or without Ko143), hRPTECs on the iBAC; assay type: in vitro ADME
Method: as §2

[6] = test system: HK2 cells; experiment: LDH release from HK2 cells on the iBAC; assay type: cell-based, human; conditions: 24 h
Method: as §3
(§4) The Live/Dead kit (Thermo Fisher, Waltham, MA, USA), LDH kit (Life Technologies, Paisley, UK) and CellTiter-Glo (Promega, Madison, WI, USA) were used to evaluate cell viability on the iBAC. These assays were performed on test compound-treated monolayers following the manufacturer’s instructions. The assay protocols are described briefly here. In the live/dead cell assay, the cells were incubated with the live/dead cell imaging reagents for 15–30 min at 37 °C and observed under a fluorescent microscope. […] In the CellTiter-Glo luminescent cell viability assay, the cells were incubated with the CellTiter-Glo reagents for 30 min at room temperature and detected with a microplate reader. […] The absorbance was then taken at 490 nm and 680 nm using a microplate reader (BMG Labtech, Germany).

[7] = test system: hRPTECs; assay type: cell-based, human; conditions: hRPTECs on the iBAC, 24 h
Method: as §3, §4

[8] = test system: HK2 cells; experiment: cells; assay type: cell-based; conditions: HK2 cells on the iBAC, 48 h; for pIC50: Homo sapiens, HK-2, apical side, read-out: IC50 (cell viability)
Method: as §3
(§5) The Live/Dead kit (Thermo Fisher, Waltham, MA, USA), LDH kit (Life Technologies, Paisley, UK) and CellTiter-Glo (Promega, Madison, WI, USA) were used to evaluate cell viability on the iBAC. These assays were performed on test compound-treated monolayers following the manufacturer’s instructions. The assay protocols are described briefly here. In the live/dead cell assay, the cells were incubated with the live/dead cell imaging reagents for 15–30 min at 37 °C and observed under a fluorescent microscope. The viable cells were stained green, while the dead ones were stained red. In the CellTiter-Glo luminescent cell viability assay, the cells were incubated with the CellTiter-Glo reagents for 30 min at room temperature and detected with a microplate reader. For the LDH assay, 50 μL of medium from each well of the treatment plates was transferred into fresh 96-well plates and an equal volume of LDH reaction mixture was added. The samples were incubated at room temperature for 30 min before the reaction was stopped by adding 50 μL of stop solution. The absorbance was then taken at 490 nm and 680 nm using a microplate reader (BMG Labtech, Germany).

[9] = test system: hRPTECs; assay type: cell-based
Method: as §3, §5

[10] = target: T2, P-gp (Homo sapiens, UniProt P08183); experiment: P-gp efflux function (rhodamine 123 with or without verapamil), HK2 model on the iBAC; conditions: without inhibitor
[11] = target: T2, P-gp; experiment: P-gp efflux function (rhodamine 123 with or without verapamil), hRPTECs on the iBAC; conditions: hRPTECs model, without inhibitor
[12] = target: T2, P-gp; experiment: in vitro

T2 sequence (P08183 whole entry): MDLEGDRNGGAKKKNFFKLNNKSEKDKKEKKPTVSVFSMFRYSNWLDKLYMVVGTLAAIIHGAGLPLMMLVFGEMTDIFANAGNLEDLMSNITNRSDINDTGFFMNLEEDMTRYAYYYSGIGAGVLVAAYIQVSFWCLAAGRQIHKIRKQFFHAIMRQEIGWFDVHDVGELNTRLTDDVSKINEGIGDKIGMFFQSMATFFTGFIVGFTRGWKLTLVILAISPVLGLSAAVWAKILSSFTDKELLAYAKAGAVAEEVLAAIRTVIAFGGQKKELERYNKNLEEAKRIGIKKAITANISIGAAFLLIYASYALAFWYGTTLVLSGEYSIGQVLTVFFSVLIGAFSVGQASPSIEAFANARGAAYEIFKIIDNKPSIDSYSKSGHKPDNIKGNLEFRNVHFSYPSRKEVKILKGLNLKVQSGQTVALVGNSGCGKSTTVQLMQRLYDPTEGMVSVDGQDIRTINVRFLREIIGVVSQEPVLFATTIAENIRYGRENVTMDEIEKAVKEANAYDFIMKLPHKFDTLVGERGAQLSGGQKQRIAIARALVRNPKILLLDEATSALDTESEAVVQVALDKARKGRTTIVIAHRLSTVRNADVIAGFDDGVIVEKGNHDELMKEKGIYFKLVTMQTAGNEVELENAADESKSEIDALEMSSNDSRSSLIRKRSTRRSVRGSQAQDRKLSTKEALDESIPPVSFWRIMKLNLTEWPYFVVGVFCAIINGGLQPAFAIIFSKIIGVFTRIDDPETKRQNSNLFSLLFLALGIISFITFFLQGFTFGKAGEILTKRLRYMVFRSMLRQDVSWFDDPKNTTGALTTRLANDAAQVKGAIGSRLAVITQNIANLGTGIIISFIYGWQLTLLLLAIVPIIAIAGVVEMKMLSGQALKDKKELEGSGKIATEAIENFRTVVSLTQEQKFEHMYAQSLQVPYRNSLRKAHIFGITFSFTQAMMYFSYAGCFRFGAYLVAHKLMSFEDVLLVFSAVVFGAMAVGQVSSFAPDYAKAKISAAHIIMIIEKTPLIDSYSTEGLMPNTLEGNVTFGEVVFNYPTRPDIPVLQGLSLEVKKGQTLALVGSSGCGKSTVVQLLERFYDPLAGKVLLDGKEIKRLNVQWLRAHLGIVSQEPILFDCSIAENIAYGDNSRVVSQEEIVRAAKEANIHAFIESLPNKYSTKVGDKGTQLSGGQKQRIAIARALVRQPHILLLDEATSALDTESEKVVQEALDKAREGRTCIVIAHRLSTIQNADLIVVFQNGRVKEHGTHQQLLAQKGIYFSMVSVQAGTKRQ

5(6)-Carboxyfluorescein [5−CF]
Papp value [1]: 0.002 ×10⁻⁶ cm/s
Papp value [2]: 0.009 ×10⁻⁶ cm/s
Papp value [3]: 0.039 ×10⁻⁶ cm/s

CN(C)c1ccc(/C=C/c2cc[n+](C)cc2)cc1.[I-] [ASP+, 4-Di-1-ASP]
Papp value [2]: 2.3 ×10⁻⁶ cm/s
Papp value [3]: 9.2 ×10⁻⁶ cm/s
Papp value, iBAC compared with Transwell ([3]; hRPTECs, day 4): significantly higher than that on the Transwell

CCN1/C(=C/C=C/c2oc3ccccc3[n+]2CC)Oc2ccccc21.[I-] [DiOC2]
Cumulative amount of substrate in cells [4]: very low
Cumulative amount of substrate in cells ([5]; hRPTECs model, without inhibitor): very low
Papp value of DiOC2 without Ko143 ([5]; hRPTECs on the iBAC, DiOC2 10 μM): 4.6 ×10⁻⁶ cm/s
Papp value of DiOC2 with Ko143 ([5]; hRPTECs on the iBAC, DiOC2 10 μM, Ko143 10 μM): 4.1 ×10⁻⁶ cm/s

CN/C(=N/CCSCc1nc[nH]c1C)NC#N [cimetidine, Cimetidine]
Relative LDH release with cisplatin in the presence of the cimetidine [6]: 109%
Relative LDH release with cisplatin in the presence of the cimetidine [7]: 93%

COc1cccc2c1C(=O)c1c(O)c3c(c(O)c1C2=O)C[C@@](O)(C(=O)CO)C[C@@H]3O[C@H]1C[C@H](N)[C@H](O)[C@H](C)O1 [doxorubicin]
pIC50 [8]: 4.85
Toxicity on the apical side (cell viability) [9]: induced toxicity
Toxicity on the basal side (cell viability) [9]: only induced nephrotoxicity on the apical side dosing

COC(=O)c1ccccc1-c1c2ccc(=N)cc-2oc2cc(N)ccc12 [rhodamine 123, Rhodamine 123]
Cumulative amount of substrate in cells [10]: very low
Cumulative amount of substrate in cells [11]: very low
Papp at 2 h, 2 μM [12]: 13 ×10⁻⁶ cm/s

CCN(CC)CCNC(=O)c1c(C)[nH]c(/C=C2\C(=O)Nc3ccc(F)cc32)c1C [sunitinib]
pIC50 [8]: 4.54
Toxicity on the apical side (cell viability) [9]: induced toxicity
Toxicity on the basal side (cell viability) [9]: only induced nephrotoxicity on the apical side dosing

polymyxin B
Toxicity on both sides (cell viability) ([8]; apical and basal administration): not toxic
Toxicity on the apical side (cell viability) ([9]; hRPTECs on the iBAC, apical administration, 48 h): induced toxicity
Toxicity on the basal side (cell viability) ([9]; hRPTECs on the iBAC, basal administration, 48 h): induced toxicity

Source: publication PMC9496563, “Functional Evaluation and Nephrotoxicity Assessment of Human Renal Proximal Tubule Cells on a Chip” (Biosensors, 2022)
